The subject of the data set is T2-B * 3501 cells.

Ends that are not written are not given here.

In the case of TPPLVKLWY [HIV(B35)-16], the “induction of CTL with specific cytotoxic activity” value is on record as “effective for inducing CTLs capable of damaging the synthetic peptide-binding T2-B * 3501 cells”.

Source of the values: patent publication US5756666A, “Peptides capable of inducing immune response to HIV” (priority 1993, dated 1998).
